Results: paper PMC8536575, “Acute effects of the imidacloprid metabolite desnitro-imidacloprid on human nACh receptors relevant for neuronal signaling” (Archives of Toxicology, 2021)
Values belong to the compound of their own block, whether it stands above or below them.

Key:
nAChRs on LUHMES neurons [1] = tested on: nAChRs on LUHMES neurons; design: method as in Loser et al. [2021a]; conditions: ref Loser et al. [2021a]; cited from earlier work
human α4β2 (HS) nAChR = target: T1, human α4β2 (HS) nAChR (Homo sapiens, UniProt P17787+P43681); assay: Two-electrode voltage-clamp recordings, Xenopus laevis oocytes expressing human α4β2 (HS) nAChR; format: cell-based
T1 construct: expressed in transfected cells; host or cells: Xenopus laevis oocytes (EcoCyte Bioscience), mRNA injection, 3 ng α4 and 30 ng β2

human α4β4 nAChR = target: T2, human α4β4 nAChR (Homo sapiens, UniProt P30926+P43681); assay: Two-electrode voltage-clamp recordings, Xenopus laevis oocytes expressing human α4β4 nAChR; format: cell-based; conditions: tested concentration range ≤ 100 µM
T2 construct: expressed in transfected cells; host or cells: Xenopus laevis oocytes, mRNA injection, 3.33 ng α4 and 3.33 ng β4
Excerpt: (§1) The human α7 nAChR subunit was cloned in the pCDNA3.1 vector.
(§2) For the generation of the mRNA for injection, the plasmid DNAs of α3, α4, β2, and β4 were linearized with the NotI restriction endonuclease (New England Biolabs) and the plasmid DNA of α7 was linearized with the XbaI restriction endonuclease (New England Biolabs). The mRNAs of α3, α4, β2, and β4 were generated by in vitro transcription using the mMESSAGE mMACHINE SP6 Transcription Kit (Invitrogen). For the generation of α7 mRNA, the mMESSAGE mMACHINE T7 Transcription Kit (Invitrogen) was used. For the separation of the DNA and mRNA, a phenol–chloroform extraction (Chomczynski and Sacchi [2006]) was performed. The mRNA was then obtained by ethanol precipitation from the aqueous phase; for quantification, the BioPhotometer (Eppendorf) was used.
(§3) The recordings of human α7, α3β4, α4β2, and α4β4 nAChRs expressed in Xenopus laevis oocytes (EcoCyte Bioscience) were performed in two-electrode voltage-clamp mode using the Roboocyte2 system and the corresponding software (version 1.4.1; Multi Channel Systems MCS). Prior to the recordings, the oocytes were maintained at 19 °C in modified Barth’s solution containing [mM]: 88 NaCl, 1 KCl, 0.33 Ca(NO3)2, 0.82 MgSO4, 2.4 NaHCO3, 0.41 CaCl2, 5 Tris, 100 U/ml penicillin, 100 µg/ml streptomycin, pH 7.4.
(§4) To express human α7 nAChR, we injected 50 nl of mRNA solution (30 ng mRNA) per oocyte, using the Roboinject and the corresponding software (version 1.2.1; Multi Channel Systems MCS). […]
(§5) The baseline correction of voltage-clamp oocyte recordings was performed with the Roboocyte2 + software (version 1.4.3; Multi Channel Systems MCS, Germany). The maximal current influx and further analysis were executed in scripts written in R. In the antagonist experiments with oocytes, the maximal inward current was determined for the last response of each period (control, three antagonist concentrations, and washout).

mice = conditions: ref Chao and Casida [1997], cited from earlier work
human α4β2 (LS) nAChR = target: T3, human α4β2 (LS) nAChR (Homo sapiens, UniProt P17787+P43681); assay: Two-electrode voltage-clamp recordings, Xenopus laevis oocytes expressing human α4β2 (LS) nAChR; format: cell-based; conditions: tested concentration range ≤ 100 µM
T3 construct: expressed in transfected cells; host or cells: Xenopus laevis oocytes, mRNA injection, 10 ng α4 and 1 ng β2
Excerpt: as §1, §2, §3, §4, §5

human α3β4 nAChR = target: T4, human α3β4 nAChR (Homo sapiens, UniProt P30926+P32297); assay: Two-electrode voltage-clamp recordings, Xenopus laevis oocytes expressing human α3β4 nAChR; format: cell-based
T4 construct: expressed in transfected cells; host or cells: Xenopus laevis oocytes, mRNA injection, 0.33 ng α3 and 3.33 ng β4

human α7 nAChR = target: T5, human α7 nAChR (Homo sapiens, UniProt P36544); assay: Two-electrode voltage-clamp recordings, Xenopus laevis oocytes expressing human α7 nAChR; format: cell-based; conditions: for inward currents: tested up to 100 µM range
T5 construct: expressed in transfected cells; host or cells: Xenopus laevis oocytes, injection of 30 ng mRNA (pCDNA3.1, T7 transcript)

nAChRs on LUHMES neurons [2] = assay: Desensitization of nAChR agonist-evoked [Ca2+]i responses of LUHMES neurons; format: cell-based, human; conditions: pretreatment […], 3 µM nicotine
Method: (§6) Ca^2+-imaging was performed using HT Functional Drug Screening System FDSS/µCELL (Hamamatsu Photonics) at nominal 37 °C. The FDSS/µCell system enables the indirect recording of changes of [Ca^2+]i via a Ca^2+-sensitive fluorescent dye. The fluorescence signal of a complete 384-well plate is acquired at once with a high-speed and high-sensitivity digital ImagEM X2 EM-CCD camera (Electron Multiplying Charge-Coupled Device, Hamamatsu Photonics), but with limited spatial resolution. Therefore, the software only determines the mean fluorescence signal of each well rather than of individual cells. For compound application, the integrated dispenser head with 384 pipette tips was used, which can add the test compound to all wells simultaneously. Cells were preincubated with Cal-520 AM (AAT Bioquest) at a concentration of 1 µM for 1 h at 37 °C. For recording, the medium was exchanged by a buffer solution containing [mM]: 135 NaCl, 5 KCl, 0.2 MgCl2, 2.5 CaCl2, 10 HEPES, and 10 D-glucose, pH 7.4. Test compound application was executed after obtaining a 1.5 min baseline recording. Where applicable, a second application was executed 4.5 min after the first application. The total recording never exceeded 8 min.
(§7) For the high-throughput Ca^2+-imaging data obtained in LUHMES cells, an offset correction using the FDSS software (version 3.2) was performed. Afterward, the data were exported and further analyzed with scripts written in R (version 3.6.3) (R Core Team [2020]). The concentration–response curves were fitted using a log-logistic model described by Ritz et al. ([2015]), utilizing the R package drc with its function drm() and LL2.2() with the following equation: f(x) = d/[1 + exp(b(log(x) − ẽ))] (Ritz et al. [2015]). The logarithm of the half-maximal effective concentration (logEC50) between 0 and the upper limit (d), which was set to 1, is represented by ẽ, x denotes the concentration, and b stands for the slope parameter (Ritz et al. [2015]). In cases with normalizations to responses induced by other compounds, the function LL2.3() was used with a variable upper limit (d; Ritz et al. [2015]). The same equation was used to determine the half-maximal inhibitory concentration (logIC50). Then the logEC50 and logIC50 values were converted into the pIC50 and pEC50 values, which are the negative logarithms to base 10.
Fig. 4 Desensitizing effects of DN-IMI and IMI-olefin on nAChRs. LUHMES neurons differentiated in 384-well plates were pretreated with various concentrations of DN-IMI or IMI-olefin for 4.5 min before different nAChR agonists were applied and [Ca^2+]i signals were recorded. […] Note the treatment scheme (upper right corner), illustrating the experimental design. […] Note the treatment scheme (upper right corner), illustrating the experimental design. Detailed data on n numbers are found in Table S6

nAChRs on LUHMES neurons [3] = assay: High-throughput Ca2+-imaging of LUHMES neurons (agonist effect); format: cell-based, human
Method: For Ca^2+-imaging, the cells were pre-differentiated for 48 h in cell culture flasks, detached and plated at a density of 20,000 cells and 30,000 cells per well on 0.1% PEI-coated 384-well and 96-well plates (Greiner Bio-One), respectively, for the Ca^2+-imaging. The cells were further differentiated for another 7 days. 50% of the medium was exchanged every 2–3 days.
as §6, §7

nAChRs on LUHMES neurons [4] = assay: Inhibition of DN-IMI-evoked [Ca2+]i responses of LUHMES neurons by nAChR antagonists; format: cell-based, human; conditions: for pIC50 for inhibition of DN-IMI-induced [Ca2+]i response: antagonist pretreatment, DN-IMI 0.5 µM
Method: as §6, §7
LUHMES neurons differentiated in 384-well plates were pretreated with various concentrations of nAChR antagonists before DN-IMI (0.5 µM) was applied in Ca^2+-imaging experiments. […] Note the treatment scheme (upper right corner), illustrating the experimental design. […] Detailed data on n numbers are found in Table S6

nAChRs on SH-SY5Y cells = assay: Inhibition of DN-IMI-evoked [Ca2+]i response of SH-SY5Y cells by mecamylamine; format: cell-based, human; conditions: Mec 125 µM, presence of PNU (10 µM)
human α3β2 nAChRs = tested on: human α3β2 nAChRs; design: method as in Chavez-Noriega et al. [2000]; conditions: ref Chavez-Noriega et al. [2000]; cited from earlier work
in vitro = conditions: human, hepatocytes
Excerpt: Renal clearance for DN-IMI was assumed to be governed only by passive processes, with both filtration and passive reabsorption being accounted for. Passive permeability was scaled from the predicted permeability in the intestine (Peff 0.37 10-4 cm/s) accounting for the surface area of the proximal tubules in the kidney.

[5] = from curve-fitted concentration–response data

T1 sequence (P43681 27-627): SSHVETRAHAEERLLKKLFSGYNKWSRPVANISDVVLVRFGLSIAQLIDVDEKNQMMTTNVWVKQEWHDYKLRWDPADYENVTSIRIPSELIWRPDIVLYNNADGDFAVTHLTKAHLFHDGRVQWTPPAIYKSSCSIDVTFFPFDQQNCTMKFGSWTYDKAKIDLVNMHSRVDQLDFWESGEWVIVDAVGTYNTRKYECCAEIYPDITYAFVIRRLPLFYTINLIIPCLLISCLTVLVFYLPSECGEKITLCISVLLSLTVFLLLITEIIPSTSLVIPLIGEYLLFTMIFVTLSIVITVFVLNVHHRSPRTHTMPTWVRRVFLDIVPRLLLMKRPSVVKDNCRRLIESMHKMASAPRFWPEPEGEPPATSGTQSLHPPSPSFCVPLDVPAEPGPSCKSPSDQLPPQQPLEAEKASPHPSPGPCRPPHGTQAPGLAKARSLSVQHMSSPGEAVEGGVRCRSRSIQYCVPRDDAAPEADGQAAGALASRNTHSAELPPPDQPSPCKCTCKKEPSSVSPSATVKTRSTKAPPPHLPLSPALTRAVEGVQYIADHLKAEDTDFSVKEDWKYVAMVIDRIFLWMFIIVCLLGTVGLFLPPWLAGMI
T1 sequence (P17787 26-502): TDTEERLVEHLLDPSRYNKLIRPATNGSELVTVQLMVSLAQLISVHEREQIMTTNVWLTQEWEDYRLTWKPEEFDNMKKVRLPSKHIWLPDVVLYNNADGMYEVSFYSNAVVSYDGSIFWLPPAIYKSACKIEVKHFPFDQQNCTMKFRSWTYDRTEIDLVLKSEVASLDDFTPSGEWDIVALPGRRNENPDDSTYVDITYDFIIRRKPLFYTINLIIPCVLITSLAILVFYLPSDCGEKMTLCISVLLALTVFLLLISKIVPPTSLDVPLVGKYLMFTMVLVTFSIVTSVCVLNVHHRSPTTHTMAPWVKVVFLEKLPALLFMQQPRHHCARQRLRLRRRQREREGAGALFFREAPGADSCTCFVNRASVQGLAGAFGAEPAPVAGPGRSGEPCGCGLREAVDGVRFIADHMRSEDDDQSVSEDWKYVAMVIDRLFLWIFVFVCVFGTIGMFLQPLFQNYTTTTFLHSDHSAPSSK
T5 sequence (P36544 23-502): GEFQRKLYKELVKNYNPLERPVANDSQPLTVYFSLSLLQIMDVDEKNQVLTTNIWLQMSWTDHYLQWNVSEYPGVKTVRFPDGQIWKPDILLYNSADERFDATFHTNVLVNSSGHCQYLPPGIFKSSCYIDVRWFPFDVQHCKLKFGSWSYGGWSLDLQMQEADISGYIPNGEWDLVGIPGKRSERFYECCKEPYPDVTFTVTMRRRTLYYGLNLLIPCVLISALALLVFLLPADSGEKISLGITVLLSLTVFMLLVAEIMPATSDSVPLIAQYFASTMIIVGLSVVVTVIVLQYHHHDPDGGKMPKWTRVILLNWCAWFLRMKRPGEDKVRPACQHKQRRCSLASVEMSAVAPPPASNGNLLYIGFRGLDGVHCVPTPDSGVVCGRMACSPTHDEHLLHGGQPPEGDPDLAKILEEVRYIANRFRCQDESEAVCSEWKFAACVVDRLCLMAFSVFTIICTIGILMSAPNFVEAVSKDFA
T4 sequence (P32297 32-505): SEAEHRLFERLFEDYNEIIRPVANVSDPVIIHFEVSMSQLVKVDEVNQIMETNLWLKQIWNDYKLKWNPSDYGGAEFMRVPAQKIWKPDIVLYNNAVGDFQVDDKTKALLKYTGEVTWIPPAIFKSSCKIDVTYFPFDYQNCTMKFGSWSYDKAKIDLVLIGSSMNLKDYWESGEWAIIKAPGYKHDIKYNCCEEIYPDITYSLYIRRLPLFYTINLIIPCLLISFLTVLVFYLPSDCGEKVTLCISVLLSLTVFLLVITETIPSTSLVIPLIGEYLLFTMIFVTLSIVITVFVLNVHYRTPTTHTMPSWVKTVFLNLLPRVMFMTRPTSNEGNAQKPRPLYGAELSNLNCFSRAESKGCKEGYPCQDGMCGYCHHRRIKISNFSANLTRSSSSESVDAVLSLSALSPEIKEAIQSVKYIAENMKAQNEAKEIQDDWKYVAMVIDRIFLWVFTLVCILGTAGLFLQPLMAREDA
T4 sequence (P30926 22-498): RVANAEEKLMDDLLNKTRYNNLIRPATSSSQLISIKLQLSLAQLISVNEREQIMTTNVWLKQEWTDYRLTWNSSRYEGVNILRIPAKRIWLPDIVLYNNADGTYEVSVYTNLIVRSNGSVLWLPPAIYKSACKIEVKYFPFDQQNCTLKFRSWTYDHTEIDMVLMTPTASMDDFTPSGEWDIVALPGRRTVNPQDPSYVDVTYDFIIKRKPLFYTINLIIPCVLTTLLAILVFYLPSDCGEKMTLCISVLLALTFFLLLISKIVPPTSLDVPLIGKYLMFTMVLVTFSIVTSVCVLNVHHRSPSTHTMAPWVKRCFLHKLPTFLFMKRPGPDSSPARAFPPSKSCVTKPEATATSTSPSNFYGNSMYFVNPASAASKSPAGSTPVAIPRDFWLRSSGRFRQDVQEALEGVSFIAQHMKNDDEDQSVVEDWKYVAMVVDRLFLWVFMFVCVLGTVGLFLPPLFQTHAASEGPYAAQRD
T3 sequence (P43681 27-627): as the sequence (P43681 27-627) above
T3 sequence (P17787 26-502): as the sequence (P17787 26-502) above
T2 sequence (P43681 27-627): as the sequence (P43681 27-627) above
T2 sequence (P30926 22-498): as the sequence (P30926 22-498) above

SMILES: CC(=O)OCC[N+](C)(C)C [ACh, Acetylcholine chloride]
pEC50 in LUHMES neurons (nAChRs on LUHMES neurons [1]): ~ 6.0

SMILES: O=[N+]([O-])NC1=NCCN1Cc1ccc(Cl)nc1 [IMI, imidacloprid]
activation of the receptor (human α4β2 (HS) nAChR; tested concentration range ≤ 100 µM): did not trigger a concentration-dependent activation
activation of the receptor (human α4β4 nAChR): did not trigger a concentration-dependent activation
LD50 (mice; Tomizawa et al. [2000], [2001]): 35 to 50 mg/kg
activation of the receptor (human α4β2 (LS) nAChR): did not trigger a concentration-dependent activation
inward currents (human α3β4 nAChR; concentration-dependent, up to 100 µM): small but significant inward currents
inward currents (human α7 nAChR): significant inward currents but with a lower potency and efficacy than DN-IMI

SMILES: O=[N+]([O-])Nc1nccn1Cc1ccc(Cl)nc1 [IMI-olefin, imidacloprid-olefin]
pIC50 for desensitization of the nicotine-evoked response (nAChRs on LUHMES neurons [2]): 4.9
lethality (mice; highest tested dose of 50 mg/kg): no lethality
pEC50 of [Ca2+]i response (peak amplitude) (nAChRs on LUHMES neurons [3]; LUHMES neurons, absence of PNU, normalized to the maximal response stimulated by DN-IMI, tested ≤ 100 µM): not reached within the measurement range
pEC50 of [Ca2+]i response in the presence of PNU (nAChRs on LUHMES neurons [3]; PNU 10 µM, normalized to maximal response to IMI-olefin in presence of PNU): 5.5
response as % of the maximal response to DN-IMI (nAChRs on LUHMES neurons [3]; at 30–100 µM): around 15%
inward currents (human α7 nAChR): significant inward currents but with a lower potency and efficacy than DN-IMI

pIC50 for inhibition of DN-IMI-induced [Ca2+]i response (nAChRs on LUHMES neurons [4]): 6.8 ± 0.03
SMILES: CC[N+](CC)(CC)CCOc1ccc(/C=C/c2ccccc2)cc1 [MG 624]

SMILES: CCN1C[C@]2(COC(=O)c3ccccc3N3C(=O)C[C@H](C)C3=O)CC[C@H](OC)[C@@]34[C@@H]5C[C@H]6[C@H](OC)[C@@H]5[C@](O)(C[C@@H]6OC)[C@@](O)([C@@H](OC)[C@H]23)[C@@H]14 [MLA, Methyllycaconitine, reference compound]
pIC50 for inhibition of DN-IMI-induced [Ca2+]i response (nAChRs on LUHMES neurons [4]): 6.8 ± 0.03
block of DN-IMI-triggered inward current (human α7 nAChR; DN-IMI 30 µM): concentration-dependently and reversibly blocked

pIC50 for inhibition of DN-IMI-induced [Ca2+]i response (nAChRs on LUHMES neurons [4]): 6.8 ± 0.03
SMILES: CNC1(C)C2CCC(C2)C1(C)C (stereo not shown) [Mec, Mecamylamine]
block of DN-IMI-triggered inward current (human α4β2 (HS) nAChR; DN-IMI 1 µM): concentration-dependently and reversibly blocked
block of DN-IMI-induced [Ca2+]i response in SH-SY5Y (nAChRs on SH-SY5Y cells): strongly blocked
pIC50, literature data for human α3β2 nAChRs (human α3β2 nAChRs): 6.6

SMILES: COc1cc2c3cc1Oc1cc(ccc1O)C[C@@H]1c4c(cc(OC)c(O)c4Oc4ccc(cc4)C[C@@H]3N(C)CC2)CC[N+]1(C)C [Tubo, (+)-Tubocurarine chloride pentahydrate]
pIC50 for inhibition of DN-IMI-induced [Ca2+]i response (nAChRs on LUHMES neurons [4]): 5.9
block of DN-IMI-evoked response (nAChRs on LUHMES neurons [4]; at 100 µM): completely blocked
block of DN-IMI-triggered inward current (human α3β4 nAChR; DN-IMI 30 µM): concentration-dependently and reversibly blocked

SMILES: CN1CCC[C@H]1c1cccnc1 [nicotine, (-)-Nicotine, reference compound]
higher potency on α4β2 (HS) nAChR than on other subtypes (human α4β2 (HS) nAChR; comparison of EC25 values, α4β2 (HS) vs α7 and α3β4): > 2 log-step
absolute EC25 (human α4β2 (HS) nAChR; [5]): 0.17 µM
pEC50 in LUHMES neurons (nAChRs on LUHMES neurons [1]): ~ 6.0
absolute EC25 (human α3β4 nAChR; [5]): 27.5 µM
estimated maximum (human α3β4 nAChR; normalized to nicotine (1 mM)): ~ 1
absolute EC25 (human α7 nAChR; [5]): 30.2 µM
estimated maximum (human α7 nAChR; normalized to nicotine (1 mM)): ~ 1

hepatocyte CLint (in vitro): 379 µL/min/1e6 cells
SMILES: C[C@]12C=CC(=O)C=C1CC[C@@H]1[C@@H]2[C@@H](O)C[C@@]2(C)[C@H]1CC[C@]2(O)C(=O)CO [prednisolone, reference compound]
